# In patent US12410157B2, “Compound useful as toll-like receptor 7 activation inhibitor” (TOYAMA PREFECTURAL UNIVERSITY, priority 2020, dated 2025):
# Values joined by “and” are separate entries in the source; they are usually repeats but may differ in a detail not shown here. Equal entries are not always repeated. “Also recorded” adds a separate entry of the source. Structures can show the parent of a compound that is named as a salt.
# Tests used:
# [1] = target: T1, TLR7 (Homo sapiens, UniProt Q9NYK1); assay: TLR7 inhibitory effect (IL-6) in PBMCs from patients with systemic lupus erythematosus; assay type: cell-based; details: SLE patient PBMCs
# T1 construct: PBMCs were isolated from 7 mL of blood collected from patients with systemic lupus erythematosus; endogenous in cells; host or cells: PBMCs from patients with systemic lupus erythematosus
# T1 sequence (Q9NYK1 27-1049): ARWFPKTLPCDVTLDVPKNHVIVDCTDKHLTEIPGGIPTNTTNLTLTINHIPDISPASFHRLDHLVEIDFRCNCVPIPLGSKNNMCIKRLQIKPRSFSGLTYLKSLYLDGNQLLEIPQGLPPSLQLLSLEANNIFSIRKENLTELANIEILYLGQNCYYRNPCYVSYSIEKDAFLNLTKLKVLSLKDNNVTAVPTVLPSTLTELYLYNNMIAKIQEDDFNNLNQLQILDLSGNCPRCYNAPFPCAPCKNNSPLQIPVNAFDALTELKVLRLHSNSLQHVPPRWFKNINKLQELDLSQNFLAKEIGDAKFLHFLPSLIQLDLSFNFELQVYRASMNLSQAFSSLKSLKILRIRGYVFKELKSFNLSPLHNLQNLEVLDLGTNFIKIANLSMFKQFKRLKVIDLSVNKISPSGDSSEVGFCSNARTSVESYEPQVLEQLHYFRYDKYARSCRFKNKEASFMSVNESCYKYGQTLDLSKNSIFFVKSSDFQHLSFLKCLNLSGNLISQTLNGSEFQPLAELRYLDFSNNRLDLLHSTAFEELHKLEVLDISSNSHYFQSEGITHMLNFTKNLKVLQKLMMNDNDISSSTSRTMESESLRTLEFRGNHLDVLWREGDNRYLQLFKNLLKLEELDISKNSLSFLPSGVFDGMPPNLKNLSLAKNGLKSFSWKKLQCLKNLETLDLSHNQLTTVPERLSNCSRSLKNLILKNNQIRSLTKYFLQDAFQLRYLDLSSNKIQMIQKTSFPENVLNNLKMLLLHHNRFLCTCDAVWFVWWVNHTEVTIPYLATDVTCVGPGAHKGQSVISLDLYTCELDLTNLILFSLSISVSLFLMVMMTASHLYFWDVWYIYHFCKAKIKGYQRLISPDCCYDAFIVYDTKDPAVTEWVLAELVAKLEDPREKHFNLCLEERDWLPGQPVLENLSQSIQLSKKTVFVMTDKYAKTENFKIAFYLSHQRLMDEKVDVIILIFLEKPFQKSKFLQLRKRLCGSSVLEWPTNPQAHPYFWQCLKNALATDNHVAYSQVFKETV
# Method: The TLR7 inhibitory effect of B2-24-4-5A·HCOOH on PBMCs derived from patients with systemic lupus erythematosus was studied. PBMCs were isolated from 7 mL of blood collected from patients with systemic lupus erythematosus. Isolated PBMCs were spread into each well of a 96-well plate containing RPMI 1640 medium containing 10% (v/v) fetal calf serum (FCS), penicillin, streptomycin, L-glutamic acid, and 2-mercaptoethanol at 0.5×10^5/100 μL and incubated at 37° C. in the presence of 5% (v/v) CO2. 50 μL of B2-24-4-5A·HCOOH, B2-24-4·HCl or the comparative drug hydroxychloroquine sulfate (HCQ) was added to each well to achieve a final concentration of 0.1 μM, 0.5 μM, 1 μM, 5 μM, 10 μM or 50 μM and incubated for 30 minutes. The TLR7 ligand, Gardiquimod (Invivogen), was added at a final concentration of 3 μg/mL and incubated for 24 hours. After incubation, all culture media were collected and the concentration of IL-6 in the culture medium was quantified using ELISA (used kit: human IL-6 DuoSet ELISA (trade name), manufactured by R&D Systems).
# [2] = tested on: systemic lupus erythematosus model mice (NZBWF1); assay: Therapeutic effect in mouse model of spontaneous systemic lupus erythematosus; assay type: in vivo
# Method: Systemic lupus erythematosus model mice (NZBWF1, 20 weeks old, female, n=55) were divided into saline-administered group (control, n=25), B2-24-4-5A·HCOOH-administered group (n=10), B2-24-4·HCOOH-administered group (n=5) and HCQ-administered group (n=15). The saline-administered group received saline (100 l) orally once a day, every day; the B2-24-4-5A·HCOOH-administered group received 10 mg/kg of B2-24-4-5A·HCOOH (100 l) orally once a day, every day; the B2-24-4·HCOOH-administered group received 10 mg/kg of B2-24-4·HCOOH (100 l) orally once a day, every day; the HCQ-administered group received 10 mg/kg of HCQ (100 l) orally once a day, every day. Fifteen weeks after the start of treatment, urine was collected from surviving mice in the saline-administered group (control, n=17), B2-24-4-5A·HCOOH-administered group (n=10), B2-24-4·HCOOH-administered group (n=5), and HCQ-administered group (n=12), and the mice were euthanized. After euthanasia, blood was drawn from the abdominal aorta of the mice, and the kidneys and spleen were removed.
# Mice that died of natural causes during the 15-week period from the start of treatment were counted as deaths, and survival analysis was performed using the Kaplan Meier method. Blood collected from the abdominal aorta of each mouse, excluding the deceased cases, was centrifuged and serum was prepared. Determination of urea nitrogen and creatinine levels in serum was entrusted to Oriental Yeast Co. Albumin levels in urine were determined by ELISA (used kit: Levis Urinary Albumin-Mouse (S-type) (trade name) (Fujifilm Wako Shibayagi Corporation)). The removed kidneys were fixed with 4% (w/v) paraformaldehyde, and immunohistochemical staining was entrusted to Morpho Technology, Inc. In PAS-stained kidney tissue sections, histological findings of 100 glomeruli were evaluated. For increased cells and substrate in the mesangial area, endothelial cell swelling and cellular infiltration of the capillary lumen (intratubular proliferation), and glomeruli with inflammatory crescents (extratubular proliferation), each of the 100 glomeruli was assigned a grade from grade 0 to grade 2 according to severity and scored on a 6-point scale.
# FIG. 10F is a photograph showing C3 deposition in the glomeruli of a mouse (#1) in the saline-administered group, a mouse (#10) in the B2-24-4-5A·HCOOH-administered group, a mouse (#4) in the B2-24-4·HCOOH-administered group and a mouse (#14) in the HCQ-administered group. […] In the renal tissue sections of a mouse (#1) in the saline-administered group, findings of active glomerulonephritis such as diffuse mesangial and intratubular proliferation were observed. […] The plots in FIGS. 10B, 10C, and 10D show the data for each individual, each bold line is the mean of the group data, and each error bar standard error. Scale bars in FIGS. 10E and 10F represent 100 μm. […]
# [3] = target: T2, TLR7 (Mus musculus, UniProt P58681); assay: TLR7 inhibition (R848-induced serum IFN-α) by intraperitoneal administration in mice; assay type: in vivo, mice (C57BL/6N); details: Example 13
# T2 construct: from tissue; host or cells: whole animal, C57BL/6N mice (serum IFN-α after R848)
# T2 sequence (P58681 27-1050): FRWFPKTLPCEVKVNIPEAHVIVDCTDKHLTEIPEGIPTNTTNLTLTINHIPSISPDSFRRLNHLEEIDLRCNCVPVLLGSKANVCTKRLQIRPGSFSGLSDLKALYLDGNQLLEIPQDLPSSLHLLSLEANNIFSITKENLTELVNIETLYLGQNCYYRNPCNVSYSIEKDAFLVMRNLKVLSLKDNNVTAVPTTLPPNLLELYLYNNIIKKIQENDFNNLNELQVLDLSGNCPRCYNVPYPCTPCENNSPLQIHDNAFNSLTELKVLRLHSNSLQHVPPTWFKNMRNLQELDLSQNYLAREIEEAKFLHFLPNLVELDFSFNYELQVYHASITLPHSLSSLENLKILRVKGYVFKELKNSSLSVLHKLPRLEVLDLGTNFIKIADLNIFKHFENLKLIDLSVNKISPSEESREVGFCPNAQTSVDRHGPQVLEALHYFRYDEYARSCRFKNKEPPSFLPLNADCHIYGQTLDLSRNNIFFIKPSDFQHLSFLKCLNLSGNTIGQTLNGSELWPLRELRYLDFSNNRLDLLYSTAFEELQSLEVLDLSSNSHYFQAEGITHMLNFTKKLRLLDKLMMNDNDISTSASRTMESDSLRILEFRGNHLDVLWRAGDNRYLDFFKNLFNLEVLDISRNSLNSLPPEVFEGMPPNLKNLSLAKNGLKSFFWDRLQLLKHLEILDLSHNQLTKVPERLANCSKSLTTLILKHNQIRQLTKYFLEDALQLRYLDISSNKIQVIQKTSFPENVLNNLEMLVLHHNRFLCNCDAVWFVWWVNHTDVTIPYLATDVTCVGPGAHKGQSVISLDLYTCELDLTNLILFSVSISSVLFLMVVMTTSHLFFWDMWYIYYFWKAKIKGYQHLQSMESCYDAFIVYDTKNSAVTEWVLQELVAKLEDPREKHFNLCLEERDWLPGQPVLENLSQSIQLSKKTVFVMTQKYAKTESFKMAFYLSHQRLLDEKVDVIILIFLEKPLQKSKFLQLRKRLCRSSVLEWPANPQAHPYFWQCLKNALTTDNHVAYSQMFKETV
# Method: Normal mice (C57BL/6N, 11 weeks old, female) were administered B2-24-4-5A·HCOOH (1, 5, 10, 100 and 1000 μg) or hydroxychloroquine sulfate (HCQ, 1000 μg) as a comparison drug intraperitoneally, followed by 5 μg of R848 after 30 minutes. The solvent was saline solution. 1 hour after R848 administration, blood was collected and the concentration of IFN-α in the serum was quantified using ELISA (used kit: Mouse IFN alpha Platinum ELISA (trade name), eBioscience). The plots in FIG. 7 represent the data for each individual, each bold line represents the mean value of each group data, and each error bar represents the standard error of each group data.
# The same method as in Example 13 was used to study the TLR7 inhibition effect of intraperitoneal administration of B2-24-4·HCl, B2-24-4-5A or B2-24-4-5A·HCOOH in mice. B2-24-4·HCl, B2-24-4-5A and B2-24-4-5A·HCOOH were administered at a dose of 10 μg. The plots in FIG. 8 represent the data for each individual, each bold line represents the mean of each group data, and each error bar represents the standard error of each group data.
# [4] = target: B lymphocyte stimulator (BLyS) (Homo sapiens, UniProt Q9Y275); details: after 52 weeks of intravenous administration (10 mg/kg); cited from earlier work
# Chain of B lymphocyte stimulator (BLyS) (Q9Y275 134-285 limits assumed): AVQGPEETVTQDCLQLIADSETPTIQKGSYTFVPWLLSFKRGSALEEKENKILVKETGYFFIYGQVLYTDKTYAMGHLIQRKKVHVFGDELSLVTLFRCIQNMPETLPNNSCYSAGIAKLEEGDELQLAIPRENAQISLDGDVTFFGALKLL
compound,measurement,setting,value
"CCN(CCO)CCCC(C)Nc1ccnc2cc(Cl)ccc12 (centres unmarked) [HCQ, hydroxychloroquine sulfate]",Order of strength of the effect on IL-6 production,[1]; FIG. 4,"stronger for B2-24-4·HCl, B2-24-4-5A·HCOOH, and HCQ, in that order"
same,IL-6 production induced by gardiquimod stimulation,"[1]; 0.1-50 μM, Gardiquimod 3 μg/mL, 24 hours",attenuated
same,Surviving mice fifteen weeks after the start of treatment,"[2]; 10 mg/kg orally once a day, groups started with n=10, n=5, n=15 (HCQ)",12
same,Tubulo-interstitial inflammation,[2]; per mouse,Not found; also recorded: Found
same,score,"[2]; per mouse, histological score on a 6-point scale",1.74 and 0.70 and 0.00 and 1.64 and 0.30 and 2.58 and 0.07 and 0.14 and 3.14 and 0.37 and 2.19 and 0.18
same,Inside 0,"[2]; per mouse, of 100 glomeruli, endothelial cell swelling and cellular infiltration of capillary lumen, Grade 0",43 and 87 and 100 (2×) and 38 and 95 and 12 and 99 and 15 and 96 and 22 and 98
same,Inside 1,"[2]; per mouse, of 100 glomeruli, endothelial cell swelling and cellular infiltration of capillary lumen, Grade 1",38 and 13 and 0 (2×) and 47 and 5 and 36 and 1 and 64 and 4 and 58 and 2
same,Inside 2,"[2]; per mouse, of 100 glomeruli, endothelial cell swelling and cellular infiltration of capillary lumen, Grade 2",19 and 0 (7×) and 15 and 52 and 21 and 20
same,Outside 0,"[2]; per mouse, of 100 glomeruli, glomerulus with semilunar, Grade 0",100 (10×) and 53 and 96
same,Outside 1,"[2]; per mouse, of 100 glomeruli, glomerulus with semilunar, Grade 1",0 (10×) and 26 and 4
same,Outside 2,"[2]; per mouse, of 100 glomeruli, glomerulus with semilunar, Grade 2",0 (11×) and 21
same,Mes0,"[2]; per mouse, of 100 glomeruli, increase in cells and substrates in the mesangium region, Grade 0: None, 10 mg/kg orally, 15 weeks, 10 mg/kg",15 and 43 and 100 and 16 and 75 and 8 and 93 and 87 and 7 and 68 and 20 and 84
same,Mes1,"[2]; per mouse, of 100 glomeruli, mesangium region, Grade 1: Moderate or lower",72 and 57 and 0 and 81 and 25 and 66 and 7 and 13 and 46 and 31 and 43 and 16
same,Mes2,"[2]; per mouse, of 100 glomeruli, mesangium region, Grade 2: Moderate or higher",13 and 0 (6×) and 3 and 26 and 47 and 1 and 37
C=C(C)[C@@H]1CC[C@]2(COC(=O)C2)C[C@H]1c1ccc(CN2CCNCC2)cc1 [B2-24-4-5A],Order of strength of the effect on IFN-α production,"[3]; 10 μg, FIG. 8","stronger with B2-24-4-5A·HCOOH, B2-24-4-5A and B2-24-4·HCl in that order"
same,IFN-α production induced by R848,[3]; dose of 10 μg intraperitoneally,attenuated
belimumab,Responder rate,[4],54%
